Paper PMC6781499 (Pharmaceutics, 2019)
Like-named read-outs stand apart in the source and are kept apart here.

Experiments:
[1] = Pharmacokinetics of Ewha-18278 after IV and oral administration to rats (non-compartmental analysis, HPLC/UV plasma assay); assay type: in vivo, Sprague-Dawley rats; settings: for F (absolute BA): PO 20 mg/kg vs IV 2 mg/kg
Procedure: The plasma sample (50 µL) with IS was deproteinized with twice the volume of acetonitrile (ACN). All HPLC analyses were performed on an Agilent 1100 series system (Palo Alto, CA, USA). Capcell-pak C18 MG120 column (3.0 mm × 250 mm, 5 µm, Shiseido, Tokyo, Japan) was the analytical column used. All the prepared samples were eluted with acetonitrile and water (65:35, v/v) containing 0.1% trifluoroacetic acid (TFA) at a flow rate of 0.5 mL/min. The sample reservoir and column oven were maintained at 4 °C and 40 °C, respectively. UV detection was performed at 284 nm and the injection volume was 30 µL.
All the animal procedures were approved by the Institutional Animal Care and Use Committee of Ewha Womans University (IACUC) (No. 2010-2-5, approved on 19 February 2010), Seoul, Korea. Seven-week-old male Sprague-Dawley rats (200–240 g) were used for the PK experiments.
The DMSO-based formulations were comprised of 10% DMSO and 90% saline-based solution (25% Cremophor® EL, 5% polyethylene glycol 400, 0.5% Tween® and 69.5% saline, v/v/v/v). The diazepam injection-based formulation applicable to humans was composed of 40% propylene glycol, 10% dehydrated ethanol, and 50% water (v/v/v). […] These concentrations were utilized to examine the effect of concentration on the PK parameters of the compound.
The rats were divided into five groups on the day of the drug administration. Two groups (n = 6) were administered the DMSO-based formulation: IV injection of 2 mg/kg and oral administration of 20 mg/kg. Three groups (n = 5–6) were treated with the diazepam injection-based formulation: IV injection of 2 mg/kg and oral administration of 20 mg/kg in two different concentrations (1 mg/mL and 2 mg/mL). The common carotid artery was catheterized for blood sampling. Blood sampling (0.2 mL) was conducted at 0, 0.033, 0.083, 0.25, 0.5, 1, 2, 4, 6, 10, and 24 h for the IV group and 0, 0.083, 0.25, 0.5, 1, 2, 4, 6, 10, 24, and 34 h for PO groups. Plasma samples mixed with IS (Ewha-18212) were analyzed by the HPLC system.

NOX2 = test system: NOX2; set-up: method as in PMID 26975635; settings: in vitro; cited from earlier work
[2] = test system: bone marrow-derived macrophages (BMMs); set-up: method as in PMID 26975635; settings: in vitro; cited from earlier work
[3] = Stability of Ewha-18278 in rat plasma (short-term, long-term, freeze-thaw, post-preparative); assay type: in vitro ADME; settings: n = 3; for Stability 37 °C, 6 h / Stability Freeze-thaw / Stability RT, 6 h / Stability −20 °C, 4-W / Stability −70 °C, 4-W: rat plasma
[4] = Solubility (aqueous / in co-solvent formulation); assay type: physicochemical
[5] = test system: ovariectomized (OVX) mice; set-up: method as in PMID 26975635; settings: orally 10–20 mg/kg daily for 4 weeks; cited from earlier work
NOX1 = test system: NOX1; set-up: method as in PMID 26975635; settings: in vitro; cited from earlier work
NOX4 = test system: NOX4; set-up: method as in PMID 26975635; settings: in vitro; cited from earlier work
[6] = IV 2 mg/kg, diazepam injection-based formulation (1 mg/mL)
[7] = male, Sprague-Dawley, rat, plasma, iv, 2 mg/kg, IV 2 mg/kg, DMSO formulation (1 mg/mL)
[8] = male, Sprague-Dawley, rat, plasma, po, 20 mg/kg, PO 20 mg/kg, DMSO formulation (2 mg/mL)
[9] = male, Sprague-Dawley, rat, plasma, po, 20 mg/kg, PO 20 mg/kg, diazepam injection-based formulation (2 mg/mL)

CCCc1c(-c2ccccc2)nn(-c2ccccn2)c1O [Ewha-18278]
Clt ([1]; IV 2 mg/kg, DMSO formulation (1 mg/mL)): 0.216 ± 0.084 L/h
Clt [1, 6]: 0.250 ± 0.072 L/h
Vd [1, 6]: 1.52 ± 1.17 L
F (absolute BA) ([1]; DMSO formulation (2 mg/mL)): 62.4%
F (absolute BA) ([1]; diazepam injection-based formulation (1 mg/mL)): 67.2%
F (absolute BA) ([1]; diazepam injection-based formulation (2 mg/mL)): 43.0%
Clt/F ([1]; PO 20 mg/kg, DMSO formulation (2 mg/mL)): 0.327 ± 0.164 L/h
AUCinf ([1]; PO 20 mg/kg, DMSO formulation (2 mg/mL), 20 mg/kg): 19400 ± 8690 ng·h/mL
BA (absolute), all groups / both formulations ([1]; PO 20 mg/kg, DMSO-based and diazepam injection-based formulations): more than 40%
Clt/F ([1]; PO 20 mg/kg, diazepam injection-based formulation (1 mg/mL)): 0.531 ± 0.370 L/h
Clt/F ([1]; PO 20 mg/kg, diazepam injection-based formulation (2 mg/mL)): 0.726 ± 0.553 L/h
Decrease of PK parameters (AUCinf, t1/2, absolute BA) in the higher concentration group ([1]; PO 20 mg/kg, diazepam injection-based formulation, 2 mg/mL vs 1 mg/mL): ~35%
Time of second peak in plasma concentration-time profile ([1]; PO 20 mg/kg, diazepam injection-based formulation, high concentration (2 mg/mL)): 10 h
Time of second peak in plasma concentration-time profile ([1]; PO 20 mg/kg, diazepam injection-based formulation, low concentration (1 mg/mL)): 6 h
Increase of AUCinf at low vs high concentration ([1]; PO, diazepam injection-based formulation, 1 mg/mL compared to 2 mg/mL): 1.6 fold
C0 ([1]; male, Sprague-Dawley, rat, plasma, IV 2 mg/kg, DMSO formulation (1 mg/mL)): 7240 ± 2450 ng/mL
Vd ([1]; male, Sprague-Dawley, rat, plasma, IV 2 mg/kg, DMSO formulation (1 mg/mL), read-out: Vd): 0.785 ± 0.154 L
AUC(0-inf) [1, 7]: 2860 ± 1090 ng·h/mL
half-life [1, 7]: 3.07 ± 2.01 h
AUC(0-inf) [1, 8]: 17900 ng·h/mL
Cmax [1, 8]: 4680 ± 2110 ng/mL
Tmax [1, 8]: 0.249 ± 0.166 h
Vd/F [1, 8]: 6.06 ± 2.32 L
half-life [1, 8]: 14.2 ± 4.76 h
Vd/F ([1]; male, Sprague-Dawley, rat, plasma, po, 20 mg/kg, PO 20 mg/kg, diazepam injection-based formulation (1 mg/mL)): 9.72 ± 5.17 L
AUC(0-inf) [1, 9]: 9250 ± 4420 ng·h/mL
Cmax [1, 9]: 6240 ± 2020 ng/mL
Tmax [1, 9]: 0.083 h
Vd/F [1, 9]: 7.9 ± 3.01 L
half-life [1, 9]: 8.96 ± 2.92 h
Effect on NOX2 activity (NOX2): directly interfering with the activity
Effect on responses of BMMs to RANKL [2]: inhibited
Stability Post-prep. ([3]; high QC concentration): 103%
Stability Post-prep. ([3]; low QC concentration): 103%
Stability 37 °C, 6 h ([3]; high QC concentration): 87.5%
Stability Freeze-thaw ([3]; high QC concentration): 86.0%
Stability RT, 6 h ([3]; high QC concentration): 93.4%
Stability −20 °C, 4-W ([3]; high QC concentration): 90.4%
Stability −70 °C, 4-W ([3]; high QC concentration): 97.5%
Stability 37 °C, 6 h ([3]; low QC concentration): 89.0%
Stability Freeze-thaw ([3]; low QC concentration): 90.4%
Stability −20 °C, 4-W ([3]; low QC concentration): 99.4%
Stability −70 °C, 4-W ([3]; low QC concentration): 100%
Stability RT, 6 h ([3]; low QC concentration, vs freshly prepared QC samples): 94.5%
Dissolution in co-solvents ([4]; mixture of propylene glycol, dehydrated ethanol, and water): completely dissolved
Solubility of the hydrochloride salt relative to free form #2 ([4]; salt formation): strongly enhanced the solubility
Aqueous solubility ([4]; water): highly insoluble in water
Bone strength / cortical bone thickness [5]: induced bone strength by increasing cortical bone thickness
Effect on NOX1 activity (NOX1): directly interfering with the activity
Effect on NOX4 activity (NOX4): directly interfering with the activity
